IC50 data for 23 compounds are collected here from patent publication US9725449B2, “Tricyclic compounds as anticancer agents” (BRISTOL-MYERS SQUIBB COMPANY, priority 2015, dated 2017).

Read-outs that look alike come from different tables or passages of the source. Where only a bound is given, the exact number is not on record here.

In general, IC50 refers to the concentration needed to halve the response being measured.

The assay addresses BRD4 (Homo sapiens, UniProt O60885). Briefly: Time resolved fluorescence resonance energy transfer (TR-FRET) binding assay, bromodomain BRD4. Conditions: one of the FRET assays described.

Turning to `[2H]C([2H])([2H])c1nnn(C)c1-c1cnc2c3c(F)c(C(C)(C)O)ncc3n([C@H](c3ccccc3)C3CCOCC3)c2c1` [Example 292, 2-{13-Fluoro-5-[4-(^2H3)methyl-1-methyl-1H-1,2,3-triazol-5-yl]-8-[(S)-oxan-4-yl(phenyl)methyl]-3,8,11-triazatricyclo[7.4.0.0^2,^7]trideca-1(13),2(7),3,5,9,11-hexaen-12-yl}propan-2-ol], for the setting “read-out: FRET BRD4 IC50”, the IC50 was less than 10 nM.

In the case of `Cc1nnn(C)c1-c1cnc2c3ccnc(OCCN(C)C)c3n([C@H](c3ccccc3)C3CCOCC3)c2c1` [Example 10, (2-{[5-(Dimethyl-1H-1,2,3-triazol-5-yl)-8-[(S)-oxan-4-yl(phenyl)methyl]-3,8,11-triazatricyclo[7.4.0.0^2,^7]trideca-1(13),2(7),3,5,9,11-hexaen-10-yl]oxy}ethyl)dimethylamine], for the setting “read-out: FRET BRD4 IC50”, the half-maximal inhibitory concentration (IC50) is less than 10 nM. On the same count and under the same terms, as for `Cc1nnn(C)c1-c1cnc2c3ccc(N4CCS(=O)(=O)CC(C)C4)nc3n([C@H](c3ccccc3)C3CCOCC3)c2c1` (stereo partly drawn) [Example 211, 4-[5-(Dimethyl-1H-1,2,3-triazol-5-yl)-8-[(S)-oxan-4-yl(phenyl)methyl]-3,8,10-triazatricyclo[7.4.0.0^2,^7]trideca-1(9),2(7),3,5,10,12-hexaen-11-yl]-6-methyl-1λ^6,4-thiazepane-1,1-dione], the figure is less than 10 nM. On the same count and under the same terms, as for `COc1nccc2c1c1ncc(-c3c(C)nnn3C)cc1n2[C@H](c1ccccc1F)C1CCOCC1` [Example 30, 5-(Dimethyl-1H-1,2,3-triazol-5-yl)-8-[(S)-(2-fluorophenyl)(oxan-4-yl)methyl]-13-methoxy-3,8,12-triazatricyclo[7.4.0.0^2,^7]trideca-1(9),2(7),3,5,10,12-hexaene], the figure is less than 1 nM. The same measure, in the same setting: as for `COc1ncc(S(C)(=O)=O)c2c1c1ncc(-c3c(C)noc3C)cc1n2[C@H](c1ccccc1F)C1CCOCC1` [Example 48, 5-(Dimethyl-1,2-oxazol-4-yl)-8-[(S)-(2-fluorophenyl)(oxan-4-yl)methyl]-10-methanesulfonyl-13-methoxy-3,8,12-triazatricyclo[7.4.0.0^2,^7]trideca-1(13),2(7),3,5,9,11-hexaene], the figure is less than 1 nM; as for `[2H]C([2H])([2H])c1nnn(C)c1-c1cnc2c3ccc(N4CC(C)S(=O)(=O)C(C)C4)nc3n([C@H](c3ccccc3)C3CCOCC3)c2c1` (stereo partly drawn) [Example 193, 2,6-Dimethyl-4-{5-[4-(^2H3)methyl-1-methyl-1H-1,2,3-triazol-5-yl]-8-[(S)-oxan-4-yl(phenyl)methyl]-3,8,10-triazatricyclo[7.4.0.0^2,^7]trideca-1(9),2(7),3,5,10,12-hexaen-11-yl}-1λ^6,4-thiomorpholine-1,1-dione], less than 1 nM. For the compound `Cc1nnn(C)c1-c1cnc2c3cc(C(C)(C)O)cnc3n([C@H](c3ccccc3)C3CCOCC3)c2c1` [Example 350, 2-[5-(Dimethyl-1H-1,2,3-triazol-5-yl)-8-[(S)-oxan-4-yl(phenyl)methyl]-3,8,10-triazatricyclo[7.4.0.0^2,^7]trideca-1(13),2(7),3,5,9,11-hexaen-12-yl]propan-2-ol], the concentration for half-maximal inhibition (IC50) (read-out: FRET BRD4 IC50) was less than 10 nM. `[2H]C([2H])([2H])c1nnn(C)c1-c1cnc2c3ccc(N4C5CCC4CC(O)C5)nc3n([C@H](c3ccccc3)C3CCOCC3)c2c1` (stereo partly drawn) [Example 183, 8-{5-[4-(^2H3)Methyl-1-methyl-1H-1,2,3-triazol-5-yl]-8-[(S)-oxan-4-yl(phenyl)methyl]-3,8,10-triazatricyclo[7.4.0.0^2,^7]trideca-1(9),2(7),3,5,10,12-hexaen-11-yl}-8-azabicyclo[3.2.1]octan-3-ol] returned an IC50 (FRET BRD4 IC50 (nM)) of less than 10 nM. In the case of `[2H]C([2H])([2H])c1nnn(C)c1-c1cnc2c3c(OC(C)C)ncc(S(C)(=O)=O)c3n(C(c3ncccc3F)C3CCOCC3)c2c1` (centres unmarked) [Example 70, 8-[(3-Fluoropyridin-2-yl)(oxan-4-yl)methyl]-10-methanesulfonyl-5-[4-(^2H3)methyl-1-methyl-1H-1,2,3-triazol-5-yl]-13-(propan-2-yloxy)-3,8,12-triazatricyclo[7.4.0.0^2,^7]trideca-1(13),2(7),3,5,9,11-hexaene], the IC50 (read-out: FRET BRD4 IC50) was less than 1 nM. On the same count and under the same terms, for `Cc1nnn(C)c1-c1cnc2c3c(Cl)ncc(Cl)c3n([C@H](c3ccccc3)C3CCOCC3)c2c1` [Example 36, 10,13-Dichloro-5-(dimethyl-1H-1,2,3-triazol-5-yl)-8-[(S)-oxan-4-yl(phenyl)methyl]-3,8,12-triazatricyclo[7.4.0.0^2,^7]trideca-1(13),2(7),3,5,9,11-hexaene] the value was less than 10 nM.

`Cc1nnn(C)c1-c1cnc2c3ccc(Cl)nc3n([C@H](c3ccccc3F)C3CCOCC3)c2c1` [Example 226, 11-Chloro-5-(dimethyl-1H-1,2,3-triazol-5-yl)-8-[(S)-(2-fluorophenyl)(oxan-4-yl)methyl]-3,8,10-triazatricyclo[7.4.0.0^2,^7]trideca-1(13),2(7),3,5,9,11-hexaene]: the IC50 (read-out: FRET BRD4 IC50) is less than 10 nM. For the compound `[2H]C([2H])([2H])c1nnn(C)c1-c1cnc2c3c(OC(C)C)ncc(S(C)(=O)=O)c3n([C@H](c3ccccc3F)C3CCOCC3)c2c1` [Example 80, 8-[(S)-(2-Fluorophenyl)(oxan-4-yl)methyl]-10-methanesulfonyl-5-[4-(^2H3)methyl-1-methyl-1H-1,2,3-triazol-5-yl]-13-(propan-2-yloxy)-3,8,12-triazatricyclo[7.4.0.0^2,^7]trideca-1(13),2(7),3,5,9,11-hexaene], the half-maximal inhibitory concentration (IC50) (read-out: FRET BRD4 IC50) was less than 1 nM.

Consider `Cc1nnn(C)c1-c1cnc2c3cnc(Cl)cc3n(C(c3ncccc3F)C3CCOCC3)c2c1` (centres unmarked) [Example 316], for which the IC50 (read-out: FRET BRD4 IC50) is less than 10 nM. For `Cc1noc(C)c1-c1cnc2c3c(NS(C)(=O)=O)ncc(S(C)(=O)=O)c3n([C@H](c3ccccc3)C3CCOCC3)c2c1` [Example 102, N-[5-(Dimethyl-1,2-oxazol-4-yl)-10-methanesulfonyl-8-[(S)-oxan-4-yl(phenyl)methyl]-3,8,12-triazatricyclo[7.4.0.0^2,^7]trideca-1(13),2(7),3,5,9,11-hexaen-13-yl]methanesulfonamide], the 50% inhibitory concentration (IC50) (read-out: FRET BRD4 IC50) is less than 10 nM. For `[2H]C([2H])([2H])C(=O)c1cc2c(cn1)c1ncc(-c3c(C)noc3C)cc1n2[C@H](c1ccc(F)cc1)C1CCOCC1` [Example 223, 1-[5-(Dimethyl-1,2-oxazol-4-yl)-8-[(S)-(4-fluorophenyl)(oxan-4-yl)methyl]-3,8,12-triazatricyclo[7.4.0.0^2,^7]trideca-1(13),2(7),3,5,9,11-hexaen-11-yl](^2H3)ethan-1-one], where the note is “read-out: FRET BRD4 IC50”, the half-inhibitory concentration (IC50) was less than 10 nM. Consider `COc1ncc(S(C)(=O)=O)c2c1c1ncc(-c3c(C)nnn3C)cc1n2[C@H](c1ccccc1F)C1CCOCC1` [Example 50, 5-(Dimethyl-1H-1,2,3-triazol-5-yl)-8-[(S)-(2-fluorophenyl)(oxan-4-yl)methyl]-10-methanesulfonyl-13-methoxy-3,8,12-triazatricyclo[7.4.0.0^2,^7]trideca-1(13),2(7),3,5,9,11-hexaene], for which the IC50 (read-out: FRET BRD4 IC50) was less than 1 nM.

Take `[2H]C([2H])([2H])c1nnn(C)c1-c1cnc2c3ccc(NC)nc3n([C@H](c3ccccc3F)C3CCOCC3)c2c1` [Example 239, 8-[(S)-(2-Fluorophenyl)(oxan-4-yl)methyl]-N-methyl-5-[4-(^2H3)methyl-1-methyl-1H-1,2,3-triazol-5-yl]-3,8,10-triazatricyclo[7.4.0.0^2,^7]trideca-1(13),2(7),3,5,9,11-hexaen-11-amine]: the IC50 (read-out: FRET BRD4 IC50) was less than 10 nM.

Regarding `Cc1nnn(C)c1-c1cnc2c3ccc(S(=O)(=O)N4CCOCC4)nc3n([C@H](c3ccccc3)C3CCOCC3)c2c1` [Example 197, 5-(Dimethyl-1H-1,2,3-triazol-5-yl)-11-(morpholine-4-sulfonyl)-8-[(S)-oxan-4-yl(phenyl)methyl]-3,8,10-triazatricyclo[7.4.0.0^2,^7]trideca-1(9),2(7),3,5,10,12-hexaene], the 50% inhibitory concentration (IC50) (read-out: FRET BRD4 IC50) was less than 10 nM. Regarding `[2H]C([2H])([2H])c1nnn(C)c1-c1cnc2c3c(NCC(F)F)nccc3n([C@H](c3ccccc3)C3CCOCC3)c2c1` [Example 133, N-(2,2-Difluoroethyl)-5-[4-(^2H3)methyl-1-methyl-1H-1,2,3-triazol-5-yl]-8-[(S)-oxan-4-yl(phenyl)methyl]-3,8,12-triazatricyclo[7.4.0.0^2,^7]trideca-1(13),2(7),3,5,9,11-hexaen-13-amine], the IC50 (read-out: FRET BRD4 IC50) is less than 1 nM. As to `[2H]C([2H])([2H])c1nnn(C)c1-c1cnc2c3cc(C(=O)OC)cnc3n([C@H](c3ccccc3)C3CCOCC3)c2c1` [Example 348, Methyl 5-[4-(^2H3)methyl-1-methyl-1H-1,2,3-triazol-5-yl]-8-[(S)-oxan-4-yl(phenyl)methyl]-3,8,10-triazatricyclo[7.4.0.0^2,^7]trideca-1(13),2(7),3,5,9,11-hexaene-12-carboxylate], where the note is “read-out: FRET BRD4 IC50”, the concentration for half-maximal inhibition (IC50) is less than 10 nM.

Turning to `COc1nccc2c3ncc(-c4c(C)nnn4C)cc3n(C(c3ccccc3F)C3CCOCC3)c12` (single isomer, unassigned) [Example 19, 5-(Dimethyl-1H-1,2,3-triazol-5-yl)-8-[(2-fluorophenyl)(oxan-4-yl)methyl]-10-methoxy-3,8,11-triazatricyclo[7.4.0.0^2,^7]trideca-1(13),2(7),3,5,9,11-hexaene], the IC50 (read-out: FRET BRD4 IC50) is less than 10 nM. Still for that read-out and setting: as for `Cc1nnn(C)c1-c1cnc2c3ccc(S(=O)(=O)N4CCCC4)nc3n([C@H](c3ccccc3)C3CCOCC3)c2c1` [Example 196, 5-(Dimethyl-1H-1,2,3-triazol-5-yl)-8-[(S)-oxan-4-yl(phenyl)methyl]-11-(pyrrolidine-1-sulfonyl)-3,8,10-triazatricyclo[7.4.0.0^2,^7]trideca-1(9),2(7),3,5,10,12-hexaene], the figure is less than 10 nM; as for `COc1ncc(S(C)(=O)=O)c2c1c1ncc(-c3c(C)nnn3C)cc1n2C(c1ccccc1)C1CCC(F)(F)CC1` (single isomer, unassigned) [Example 91, 8-[(4,4-Difluorocyclohexyl)(phenyl)methyl]-5-(dimethyl-1H-1,2,3-triazol-5-yl)-10-methanesulfonyl-13-methoxy-3,8,12-triazatricyclo[7.4.0.0^2,^7]trideca-1(13),2(7),3,5,9,11-hexaene], less than 1500 nM.
